Source: PMC3907537, “Evaluation of the Endothelin Receptor Antagonists Ambrisentan, Bosentan, Macitentan, and Sitaxsentan as Hepatobiliary Transporter Inhibitors and Substrates in Sandwich-Cultured Human Hepatocytes” (PLoS ONE, 2014)
Where two headings read alike, the source gives them in different places.

How the values were obtained:
NTCP = test system: NTCP; parameters: method as in PMID 20628435; settings: concentrations tested 2, 20, and 100 µM, Hartman et al. ref 29; cited from earlier work
OATP1B3 = biological target: T1, OATP1B3 (Homo sapiens, UniProt Q9NPD5); assay: OATP1B3 inhibition, Fluo 3 uptake in transfected CHO cells; type: cell-based
T1 construct: host or cells: CHO
T1 sequence (Q9NPD5 1-702): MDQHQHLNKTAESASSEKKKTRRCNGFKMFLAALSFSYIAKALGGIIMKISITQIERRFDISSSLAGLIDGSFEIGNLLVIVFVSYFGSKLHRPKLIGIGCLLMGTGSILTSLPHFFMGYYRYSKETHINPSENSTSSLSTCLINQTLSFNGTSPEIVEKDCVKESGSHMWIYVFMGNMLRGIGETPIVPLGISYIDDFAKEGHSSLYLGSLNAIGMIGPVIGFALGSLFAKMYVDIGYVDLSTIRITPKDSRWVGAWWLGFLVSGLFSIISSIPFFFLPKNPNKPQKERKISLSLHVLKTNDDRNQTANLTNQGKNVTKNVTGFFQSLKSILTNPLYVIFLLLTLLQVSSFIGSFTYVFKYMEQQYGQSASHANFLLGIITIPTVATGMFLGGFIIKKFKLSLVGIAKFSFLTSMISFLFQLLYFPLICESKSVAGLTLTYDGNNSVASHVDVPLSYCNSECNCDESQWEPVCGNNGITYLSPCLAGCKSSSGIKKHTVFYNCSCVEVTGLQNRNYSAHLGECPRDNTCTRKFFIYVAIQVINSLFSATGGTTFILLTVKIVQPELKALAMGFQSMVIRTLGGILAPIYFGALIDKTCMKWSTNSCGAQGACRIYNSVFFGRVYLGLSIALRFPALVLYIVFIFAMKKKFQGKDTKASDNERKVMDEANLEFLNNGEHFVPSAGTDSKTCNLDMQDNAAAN
Text: (§1) Chinese Hamster Ovary (CHO) cells were obtained from Professor B. Stieger’s laboratory at University of Zurich, Zurich, Switzerland. Madin-Darby Canine Kidney strain II (MDCKII) cells were obtained from Nederlands Kanker Instituut (NKI), Amsterdam, Netherlands. NTCP-CHO cells, BSEP and MRP2 membrane vesicles were developed and validated at Solvo Biotechnology, Budaors, Hungary.
CHO cells, either wild type or transfected with the genes encoding human NTCP, OATP1B1 and OATP1B3, were maintained in Dulbecco’s Modification of Eagle’s Medium (DMEM) containing 1,000 mg/L D-glucose, L-glutamine, 25 mM HEPES buffer, 110 mg/L sodium pyruvate, 1% Penicillin/Streptomycin, 10% fetal bovine serum (FBS), 0.05 mg/mL L proline and 0.5 mg/mL of geneticin G-418. Cells were maintained in incubators set at 37°C, 90% humidity and 5% CO2. OATP1B1 and OATP1B3 over-expressing cells were seeded in BioCoat Poly-D-Lysine coated 96-well black cell culture plates with clear bottoms at a density of 1×10^5 cells/well. Sodium butyrate (10 mM) was added to the OATP1B1 and OATP1B3 cells once seeded to increase the protein expression level and the cells were grown to confluence overnight. The assay buffer contained 142 mM NaCl, 5 mM KCl, 1 mM KH2PO4, 1.2 mM MgSO4, 1.5 mM CaCl2, 5 mM Glucose and 12.5 mM HEPES (pH 7.4). After removal of the media and before adding test compounds, the cells were washed twice with 37°C assay buffer followed by a 0.5 h pre-incubation with assay buffer. […] Wells were analyzed for Fluo 3 fluorescence at an excitation of 485 nm and emission of 530 nm. Inhibition of NTCP was studied using similar conditions to those described for OATP1B1 and OATP1B3 except that inhibition of the uptake ^3H taurocholate into transfected CHO cells was monitored using radioactive scintillation counting.
All assays were performed in duplicate. […] IC50 values were calculated using non-linear fitting of % inhibition versus concentration to a sigmoidal curve with a variable Hill Coefficient using GraphPad Prism 5 (GraphPad Software Inc., San Diego, CA).

MRP2 = biological target: T2, MRP2 (Homo sapiens, UniProt Q92887); assay: MRP2 inhibition, estradiol-17-beta-glucuronide transport in Sf9 membrane vesicles; type: biochemical; settings: E217βG 0.2 µM, single experiment in duplicate, tested 0.14–100 µM
T2 construct: purchased Solvo Biotechnology, Budaors, Hungary; host or cells: Sf9 insect cells (membrane vesicles)
Text: as §1
BSEP and MRP2 inhibition was studied in membrane vesicles isolated from sf9 insect cells overexpressing the respective transporters. Vesicular transport inhibition assays used test compounds incubated with membrane vesicle preparations (total protein: 50 µg/well) and probe substrates, taurocholate (2 µM) for BSEP or Estradiol-17-beta-glucuronide (0.2 µM) for MRP2, in the absence or presence of ATP. Reaction mixtures were preincubated for 15 min at 37°C. Reactions were started by the addition of 25 µL of 12 mM MgATP or assay buffer (for background controls), preincubated separately. Reactions were stopped after 5 min by the addition of 200 µL of ice-cold washing buffer and immediate filtration via glass fiber filters mounted to a 96-well plate (filter plate). The filters were washed, dried and the amount of substrate inside the filtered vesicles determined by liquid scintillation. Cyclosporin A (20 µM) or benzbromarone (100 µM), for BSEP or MRP2, respectively, were used as positive control inhibitors. Control membranes lacking transporter expression were used as negative control.
All assays were performed in duplicate. IC50 was defined as the test article concentration needed to inhibit the maximal transporter specific accumulation by 50%. IC50 values were calculated using non-linear fitting of % inhibition versus concentration to a sigmoidal curve with a variable Hill Coefficient using GraphPad Prism 5 (GraphPad Software Inc., San Diego, CA).

[1] = CHO cells, Fluo 3, mean ± SD of 3 independent studies in duplicate, tested 0.14–100 µM, read-out: OATP1B3 IC50

T2 sequence (Q92887 whole entry): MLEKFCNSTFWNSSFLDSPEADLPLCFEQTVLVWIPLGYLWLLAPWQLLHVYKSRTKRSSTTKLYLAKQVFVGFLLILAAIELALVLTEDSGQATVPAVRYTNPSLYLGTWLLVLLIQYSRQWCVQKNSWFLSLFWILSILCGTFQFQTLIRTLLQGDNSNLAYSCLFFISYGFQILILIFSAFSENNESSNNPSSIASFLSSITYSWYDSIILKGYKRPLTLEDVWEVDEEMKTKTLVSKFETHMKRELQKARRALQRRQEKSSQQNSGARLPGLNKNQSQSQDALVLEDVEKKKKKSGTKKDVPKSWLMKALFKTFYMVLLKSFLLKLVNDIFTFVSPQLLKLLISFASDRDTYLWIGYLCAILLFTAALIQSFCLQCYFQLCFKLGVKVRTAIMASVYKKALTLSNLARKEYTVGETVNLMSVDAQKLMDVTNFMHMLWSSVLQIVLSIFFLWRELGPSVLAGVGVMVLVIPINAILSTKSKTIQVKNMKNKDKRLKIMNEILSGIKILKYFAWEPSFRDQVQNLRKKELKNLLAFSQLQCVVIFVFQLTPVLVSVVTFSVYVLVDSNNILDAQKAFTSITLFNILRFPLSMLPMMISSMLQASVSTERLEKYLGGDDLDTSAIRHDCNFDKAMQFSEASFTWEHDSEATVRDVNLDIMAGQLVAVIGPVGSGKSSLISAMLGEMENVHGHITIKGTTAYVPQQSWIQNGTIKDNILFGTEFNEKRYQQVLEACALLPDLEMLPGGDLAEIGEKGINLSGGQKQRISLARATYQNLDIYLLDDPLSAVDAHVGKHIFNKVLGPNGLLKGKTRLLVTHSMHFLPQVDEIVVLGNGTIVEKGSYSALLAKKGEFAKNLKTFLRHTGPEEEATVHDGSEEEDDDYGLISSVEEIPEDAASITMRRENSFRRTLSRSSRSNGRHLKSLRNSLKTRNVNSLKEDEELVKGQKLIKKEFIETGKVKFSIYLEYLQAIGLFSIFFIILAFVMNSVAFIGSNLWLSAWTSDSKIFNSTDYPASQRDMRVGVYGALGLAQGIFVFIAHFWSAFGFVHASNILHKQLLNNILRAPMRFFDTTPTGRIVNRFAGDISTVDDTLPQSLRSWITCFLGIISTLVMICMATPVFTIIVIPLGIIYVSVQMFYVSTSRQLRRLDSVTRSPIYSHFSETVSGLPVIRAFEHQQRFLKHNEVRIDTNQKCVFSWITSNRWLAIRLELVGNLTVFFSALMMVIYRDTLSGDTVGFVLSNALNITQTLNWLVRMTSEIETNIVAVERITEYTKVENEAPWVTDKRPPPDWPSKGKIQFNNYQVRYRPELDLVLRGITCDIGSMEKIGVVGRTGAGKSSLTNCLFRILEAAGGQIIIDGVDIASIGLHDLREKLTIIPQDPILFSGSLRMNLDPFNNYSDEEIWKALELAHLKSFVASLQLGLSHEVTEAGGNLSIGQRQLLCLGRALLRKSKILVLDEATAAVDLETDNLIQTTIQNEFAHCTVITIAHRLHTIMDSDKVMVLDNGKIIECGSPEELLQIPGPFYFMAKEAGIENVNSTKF

| IC50 (OATP1B3; [1]) | IC50 (MRP2) | IC50 (OATP1B3) | SMILES | inhibition of NTCP (NTCP) |
| --- | --- | --- | --- | --- |
| – | – | – | Cc1cc2c(cc1CC(=O)c1sccc1S(=O)(=O)Nc1onc(C)c1Cl)OCO2 [sitaxsentan] | inhibited |
| 5.2 ± 2.1 µM | > 100 µM | – | COc1ccccc1Oc1c(NS(=O)(=O)c2ccc(C(C)(C)C)cc2)nc(-c2ncccn2)nc1OCCO [bosentan] | inhibited |
| 2.1 ± 0.3 µM | > 100 µM | – | CCCNS(=O)(=O)Nc1ncnc(OCCOc2ncc(Br)cn2)c1-c1ccc(Br)cc1 [macitentan] | – |
| – | ~75 µM | 44.6 ± 23.8 µM | COC(c1ccccc1)(c1ccccc1)[C@H](Oc1nc(C)cc(C)n1)C(=O)O [ambrisentan] | did not |
